{
  "source": "the NIST ThermoML archive (doi:10.1021/je200279q)",
  "key": {"[1]": {"settings": "298.15 K; 101.33 kPa; Liquid; Pycnometric method"}, "[2]": {"experiment": "refractive index (Na D-line) (dimensionless)", "settings": "298.15 K; 101.33 kPa; Liquid; Standard Abbe refractometry"}},
  "note": "Numbers after ± are expanded uncertainties.",
  "data": [
    {"molecule": "CC(C)CC(C)(C)C", "note": "[2,2,4-trimethylpentane]", "values": [
      {"measurement": "mass density", "setting": "[1]", "result": "687.5 ± 0.7", "unit": "kg/m3"},
      {"measurement": "refractive index", "setting": "[2]", "result": "1.3892 ± 0.0008"}
    ]},
    {"molecule": "CCCCO", "note": "[butan-1-ol]", "values": [
      {"measurement": "mass density", "setting": "[1]", "result": "805.8 ± 0.7", "unit": "kg/m3"},
      {"measurement": "refractive index", "setting": "[2]", "result": "1.3973 ± 0.0007"}
    ]},
    {"molecule": "CCCO", "note": "[propan-1-ol]", "values": [
      {"measurement": "mass density", "setting": "[1]", "result": "799.5 ± 0.7", "unit": "kg/m3"},
      {"measurement": "refractive index", "setting": "[2]", "result": "1.3833 ± 0.0007"}
    ]}
  ]
}
